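How tested: cells in 96-well plates exposed to compound for 48 hours at five concentrations. TGI: concentration producing complete growth inhibition.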
Legend:
Test in all cases: inhibition of tumour cell growth, NCI panel, 48 h
CCRF-CEM leukemia = system: CCRF-CEM leukemia
HCT-116 colon = system: HCT-116 colon
HT29 colon = system: HT29 colon
IGROV1 ovarian = system: IGROV1 ovarian
K-562 leukemia = system: K-562 leukemia
NCI-H23 lung = system: NCI-H23 lung
NCI/ADR-RES ovarian = system: NCI/ADR-RES ovarian
OVCAR-5 ovarian = system: OVCAR-5 ovarian
SF-268 CNS = system: SF-268 CNS
SNB-75 CNS = system: SNB-75 CNS
UO-31 renal = system: UO-31 renal

Row | SMILES | TGI (CCRF-CEM leukemia) [µM] | TGI (HCT-116 colon) [µM] | TGI (HT29 colon) [µM] | TGI (IGROV1 ovarian) [µM] | TGI (K-562 leukemia) [µM] | TGI (NCI-H23 lung) [µM] | TGI (NCI/ADR-RES ovarian) [µM] | TGI (OVCAR-5 ovarian) [µM] | TGI (SF-268 CNS) [µM] | TGI (SNB-75 CNS) [µM] | TGI (UO-31 renal) [µM]
1 | Cc1cccc2c(N)c3cccc(C(=O)NCC[N+](C)(C)Cc4ccc([N+](=O)[O-])s4)c3nc12 | 24.4 | > 100 | 23.6 | 26 | 27.9 | 21.9 | > 100 | > 61.2 | 36.9 | 43.8 | > 74.7
2 | O=C(O)CSc1ccccc1C(=O)O | > 100 | > 100 | > 100 | > 100 | > 100 | > 100 | > 100 | > 100 | > 100 | > 100 | > 100
3 | COC(=O)C1=C(OC(=O)/C(=C/c2ccccc2)c2ccc(OC)cc2)C(C(=O)OC)[C@@]2(O)[C@@H](C(=O)OC)[C@H](C)C[C@@H]1[C@@H]2C(=O)OC (some centres undefined) | > 100 | > 100 | > 100 | > 100 | > 100 | > 100 | > 100 | > 100 | > 100 | > 100 | > 100
4 | C[C@]12CC[C@H]3[C@@H](CCC4=CC(=O)C=C[C@@]43OC(=O)C(F)(F)F)[C@@H]1CCC2=O | > 100 | > 56 | > 100 | > 100 | > 100 | > 100 | > 100 | > 100 | > 100 | > 100 | > 100
